Results reported in ChEMBL document CHEMBL2034941, “Toward Overcoming Staphylococcus aureus Aminoglycoside Resistance Mechanisms with a Functionally Designed Neomycin Analogue” (2011).
In brackets after ≈: the same amount, converted by molar mass.

Legend:
Assay type in all cases: functional
Staphylococcus aureus [1] = assay: Antimicrobial activity against Staphylococcus aureus harboring APH(2'''') and AAC(6') enzymes
Staphylococcus aureus [2] = assay: Antimicrobial activity against Staphylococcus aureus ATCC 29213
Staphylococcus aureus [3] = assay: Antimicrobial activity against Staphylococcus aureus harboring APH(3'/5'''')-3 enzyme
Staphylococcus aureus [4] = assay: Antimicrobial activity against Staphylococcus aureus harboring ANT(4')-1 enzyme
Staphylococcus aureus [5] = assay: Ratio of amikacin MIC50 to compound MIC50 for methicillin-resistant Staphylococcus aureus clinical isolate
Staphylococcus aureus [6] = assay: Antimicrobial activity against methicillin-resistant Staphylococcus aureus clinical isolate
Staphylococcus aureus [7] = assay: Ratio of amikacin MIC90 to compound MIC90 for methicillin-resistant Staphylococcus aureus clinical isolate

| Compound | MIC (Staphylococcus aureus [1]) [µg/mL] | MIC (Staphylococcus aureus [2]) [µg/mL] | MIC (Staphylococcus aureus [3]) [µg/mL] | MIC (Staphylococcus aureus [4]) [µg/mL] | Ratio (Staphylococcus aureus [5]) | MIC50 (Staphylococcus aureus [6]) [µg/mL] | MIC90 (Staphylococcus aureus [6]) [µg/mL] | Ratio (Staphylococcus aureus [7]) |
| --- | --- | --- | --- | --- | --- | --- | --- | --- |
| NCC[C@H](O)C(=O)N[C@@H]1C[C@H](N)[C@@H](O[C@H]2O[C@H](CO)[C@@H](O)[C@H](O)[C@H]2N)[C@H](O[C@@H]2O[C@H](CO)[C@@H](O[C@H]3O[C@@H](CN)[C@@H](O)[C@H](O)[C@H]3N)[C@H]2O)[C@H]1O | > 32 | 2 (≈ 2.79 µM) | 32 (≈ 44.6 µM) | > 64 |  |  |  |  |
| NC[C@H]1CC[C@@H](N)[C@@H](O[C@H]2[C@@H](O)[C@H](O[C@@H]3[C@@H](O)[C@H](N)C[C@H](N)[C@H]3O[C@H]3O[C@H](CO)CC[C@H]3N)O[C@@H]2CO)O1 | > 32 | 2 (≈ 3.63 µM) |  | 4 (≈ 7.25 µM) |  |  |  |  |
| NCC[C@H](O)C(=O)N[C@@H]1C[C@H](N)[C@@H](O[C@H]2O[C@H](CO)CC[C@H]2N)[C@H](O[C@@H]2O[C@H](CO)[C@@H](O[C@H]3O[C@@H](CN)CC[C@H]3N)[C@H]2O)[C@H]1O | 16 (≈ 24.5 µM) | 1 (≈ 1.53 µM) |  | 8 (≈ 12.3 µM) |  |  |  |  |
| NC[C@@H]1CC[C@@H](N)[C@@H](O[C@H]2[C@H](O[C@@H]3O[C@H](CO)[C@@H](O[C@H]4O[C@@H](CN)CC[C@H]4N)[C@H]3O)[C@@H](O)[C@H](N)C[C@@H]2N)O1 | > 64 | 0.5 (≈ 0.908 µM) | 32 (≈ 58.1 µM) | 0.5 (≈ 0.908 µM) |  |  |  |  |
| NCC[C@H](O)C(=O)N[C@@H]1C[C@H](N)[C@@H](O[C@H]2O[C@H](CN)CC[C@H]2N)[C@H](O[C@@H]2O[C@H](CO)[C@@H](O[C@H]3O[C@@H](CN)CC[C@H]3N)[C@H]2O)[C@H]1O | 2 (≈ 3.07 µM) | 0.5 (≈ 0.767 µM) | 1 (≈ 1.53 µM) | 1 (≈ 1.53 µM) | >64 | 0.25 (≈ 0.384 µM) | 0.5 (≈ 0.767 µM) | >64 |
| NCC[C@H](O)C(=O)N[C@@H]1C[C@H](N)[C@@H](O[C@H]2O[C@H](CN)[C@@H](O)[C@H](O)[C@H]2O)[C@H](O)[C@H]1O[C@H]1O[C@H](CO)[C@@H](O)[C@H](N)[C@H]1O [AMIKACIN] | 64 (≈ 109 µM) | 4 (≈ 6.83 µM) | 8 (≈ 13.7 µM) | 64 (≈ 109 µM) |  | 32 (≈ 54.6 µM) | > 64 |  |
| NC[C@@H]1O[C@H](O[C@H]2[C@@H](O)[C@H](O[C@@H]3[C@@H](O)[C@H](N)C[C@H](N)[C@H]3O[C@H]3O[C@H](CN)[C@@H](O)[C@H](O)[C@H]3N)O[C@@H]2CO)[C@H](N)[C@@H](O)[C@@H]1O [FRAMYCETIN] | > 64 | 0.5 (≈ 0.813 µM) | > 64 | > 64 |  |  |  |  |
| CN[C@@H]1[C@@H](O)[C@@H](O[C@@H]2[C@@H](O)[C@H](O[C@H]3O[C@H]([C@@H](C)NC)CC[C@H]3N)[C@@H](N)C[C@H]2N)OC[C@]1(C)O [GENTAMICIN C1] | > 64 | 0.5 (≈ 1.05 µM) | 0.5 (≈ 1.05 µM) | 0.5 (≈ 1.05 µM) |  | > 32 | > 32 |  |
| NC[C@@H]1O[C@H](O[C@H]2[C@@H](O)[C@H](O[C@@H]3[C@@H](O)[C@H](N)C[C@H](N)[C@H]3O[C@H]3O[C@H](CO)[C@@H](O)[C@H](O)[C@H]3N)O[C@@H]2CO)[C@H](N)[C@@H](O)[C@@H]1O [PAROMOMYCIN] | > 64 | 2 (≈ 3.25 µM) | > 64 | > 64 |  |  |  |  |
| NC[C@H]1O[C@H](O[C@H]2[C@H](O[C@@H]3O[C@H](CO)[C@@H](O)[C@H]3O)[C@@H](O)[C@H](N)C[C@@H]2N)[C@H](N)[C@@H](O)[C@@H]1O [RIBOSTAMYCIN] | > 64 | 8 (≈ 17.6 µM) | > 64 | > 64 |  |  |  |  |
| butirosin | > 32 | 8 | > 32 | > 32 |  |  |  |  |
